Molecules are shown by their SMILES.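 A five-concentration, 48-hour dose response in 96-well plates underlies each endpoint, interpolated linearly between surrounding concentrations. GI50 = concentration required for 50% inhibition of growth. TGI: concentration producing complete growth inhibition.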

Among the test systems are IGROV1 ovarian; KM12 colon; DU-145 prostate; SF-268 CNS; UACC-257 melanoma; SK-MEL-5 melanoma; HOP-62 NSCLC; NCI-H522 lung; A549 NSCLC; SNB-19 CNS.
Assay in all cases: DTP human tumour cell line panel, 48 h

What is called GI50 is the concentration giving 50% growth inhibition. As usually defined, the TGI is the concentration giving total growth inhibition. High values mean less potent growth arrest, low ones more potent growth arrest. With `CCCCCCCCCCCCCCCCCCOc1ccccc1CC(=O)OCC[N+]1(C)CCCC1`, the GI50 in the assay on IGROV1 ovarian is 1.52 µM; in the assay with KM12 colon, 1.88 µM; with DU-145 prostate it was 2.21 µM; in the assay on SF-268 CNS, 1.55 µM; with UACC-257 melanoma, 2.82 µM. Also, the total growth inhibition concentration (TGI) with IGROV1 ovarian worked out at 3.06 µM; with KM12 colon it was 3.49 µM; in the assay with DU-145 prostate, 5.29 µM; in the assay with SF-268 CNS, 3.34 µM; in the assay on UACC-257 melanoma, 9.12 µM.
On to `CC(=O)N[C@H]1CSSC[C@@H](C(N)=O)NC(=O)[C@H](C(C)C)NC(=O)[C@H](C)NC(=O)[C@H](Cc2cnc[nH]2)NC1=O`, for which the GI50 in the assay on SK-MEL-5 melanoma, in the assay on IGROV1 ovarian, in the assay on KM12 colon, with HOP-62 NSCLC, with NCI-H522 lung and in the assay on DU-145 prostate was above 100 µM throughout. Also, the GI50 with SF-268 CNS, in the assay on A549 NSCLC, with UACC-257 melanoma and in the assay with SNB-19 CNS was above 100 µM each time. Also, the total growth inhibition concentration (TGI) with SK-MEL-5 melanoma, in the assay with IGROV1 ovarian, in the assay with KM12 colon, in the assay on HOP-62 NSCLC, with NCI-H522 lung and with DU-145 prostate was above 100 µM throughout. For the same compound, the TGI with SF-268 CNS, in the assay on A549 NSCLC, with UACC-257 melanoma and in the assay with SNB-19 CNS was above 100 µM throughout.
As for `O=C1NC(=O)C(CC2CCCCCCCCCCC2=O)C(=O)N1` (stereo not given), the TGI with SK-MEL-5 melanoma, with IGROV1 ovarian, in the assay on KM12 colon, in the assay on HOP-62 NSCLC, in the assay with NCI-H522 lung and in the assay with DU-145 prostate was above 100 µM each time. Moreover, the TGI in the assay with SF-268 CNS, with A549 NSCLC, in the assay with UACC-257 melanoma and in the assay on SNB-19 CNS was above 100 µM in each case.
Consider `O=C1CC2c3ccccc3CCC2c2ccccc21` (stereo not given), for which the TGI was 31 µM with SK-MEL-5 melanoma; 86.6 µM in the assay on IGROV1 ovarian; 26.8 µM in the assay with KM12 colon; above 100 µM in the assay with HOP-62 NSCLC; 46.7 µM in the assay with NCI-H522 lung; above 100 µM in the assay on DU-145 prostate. Moreover, the TGI in the assay with SF-268 CNS is above 100 µM; with A549 NSCLC, above 100 µM; with UACC-257 melanoma, 73.2 µM; in the assay on SNB-19 CNS, above 100 µM.
On to `O=c1cc(NC2CCN(CCCc3ccccc3)CC2)c2cc(Cl)ccc2o1`, for which the GI50 in the assay on SK-MEL-5 melanoma is 12 µM; with IGROV1 ovarian, 11.3 µM; in the assay on KM12 colon, 12.5 µM; with HOP-62 NSCLC, 17.3 µM; with NCI-H522 lung, 8.35 µM; with DU-145 prostate, 15.8 µM. In addition, the GI50 was 14.3 µM with SF-268 CNS, 13.4 µM in the assay on A549 NSCLC, 15.4 µM in the assay with UACC-257 melanoma and 13.4 µM with SNB-19 CNS. The total growth inhibition concentration (TGI) is 24.4 µM in the assay with SK-MEL-5 melanoma; 26.6 µM in the assay with IGROV1 ovarian; 25 µM in the assay with KM12 colon; 33.3 µM with HOP-62 NSCLC; 23.5 µM in the assay with NCI-H522 lung; 29.3 µM in the assay with DU-145 prostate. Also, the concentration for total growth inhibition (TGI) with SF-268 CNS was found to be 28.3 µM; in the assay with A549 NSCLC, 28.6 µM; in the assay with UACC-257 melanoma it was 30 µM; in the assay with SNB-19 CNS, 29.8 µM.
Take `Nc1nc(F)nc2c1ncn2C1OC(CO)C(O)C1O` (stereo not given): the GI50 in the assay on SK-MEL-5 melanoma was 39.7 µM; in the assay with IGROV1 ovarian, 74.1 µM; in the assay with HOP-62 NSCLC, 13.6 µM; in the assay on NCI-H522 lung, 18.4 µM; in the assay with DU-145 prostate, 19.7 µM; in the assay on SF-268 CNS, 55.4 µM. Moreover, the GI50 with A549 NSCLC is 35.6 µM; in the assay with SNB-19 CNS it was 14.6 µM. The total growth inhibition concentration (TGI) with SK-MEL-5 melanoma is above 100 µM; with IGROV1 ovarian, above 100 µM; in the assay with KM12 colon, above 100 µM; with HOP-62 NSCLC, above 79.6 µM; in the assay on NCI-H522 lung it was above 100 µM; in the assay on DU-145 prostate, above 100 µM. Besides, the TGI in the assay with SF-268 CNS, in the assay with A549 NSCLC, in the assay with UACC-257 melanoma and with SNB-19 CNS was above 100 µM in each case.
As for `CN(C)CCN1C(=O)c2ccc3c4c(ccc(c24)C1=O)C(=O)N(CCN=C=S)C3=O`, the GI50 is 0.113 µM with SK-MEL-5 melanoma; 0.051 µM in the assay on IGROV1 ovarian; 0.0415 µM with KM12 colon; 0.0503 µM in the assay with HOP-62 NSCLC; 0.0311 µM in the assay on NCI-H522 lung; 0.0415 µM with DU-145 prostate. Further, the concentration for 50% growth inhibition (GI50) with SF-268 CNS is 0.0466 µM; in the assay on A549 NSCLC, 0.0739 µM; in the assay on UACC-257 melanoma it was 0.0849 µM; with SNB-19 CNS, 0.0954 µM. Moreover, the TGI came to 0.235 µM in the assay on SK-MEL-5 melanoma; 0.236 µM in the assay on IGROV1 ovarian; 0.173 µM in the assay with KM12 colon; 0.194 µM in the assay with HOP-62 NSCLC; 0.145 µM with NCI-H522 lung; 0.149 µM with DU-145 prostate. Also, the TGI in the assay on SF-268 CNS was 0.29 µM; with A549 NSCLC, 0.252 µM; in the assay on UACC-257 melanoma, 0.216 µM; in the assay with SNB-19 CNS, 0.596 µM.
With `C[C@H](O)C(=O)N1CCC(CCn2c(Sc3cc4c(cc3Br)OCO4)nc3c(N)ncnc32)CC1`, the GI50 is 2.95 µM with SK-MEL-5 melanoma; 1.32 µM with IGROV1 ovarian; 0.424 µM with KM12 colon; 1.73 µM in the assay with HOP-62 NSCLC; 0.791 µM in the assay on NCI-H522 lung; 0.642 µM with DU-145 prostate. Also, the GI50 in the assay on SF-268 CNS was 8.83 µM; in the assay on A549 NSCLC, 0.869 µM; with UACC-257 melanoma, 2.13 µM; with SNB-19 CNS, 3.7 µM. The TGI in the assay on SK-MEL-5 melanoma is above 100 µM; in the assay on IGROV1 ovarian it was above 100 µM; in the assay with KM12 colon, 9.86 µM; in the assay on HOP-62 NSCLC, above 100 µM; in the assay with NCI-H522 lung it was above 52.2 µM; in the assay with DU-145 prostate, above 100 µM. Further, the TGI in the assay with SF-268 CNS, in the assay on A549 NSCLC, in the assay on UACC-257 melanoma and in the assay on SNB-19 CNS was above 100 µM in each case.
For `COc1ccc(/C=C/C(=O)C(CC2CCC2)C(=O)/C=C/c2ccc(OC)c(OC)c2)cc1OC`, the GI50 in the assay on SK-MEL-5 melanoma is 1.77 µM; in the assay with IGROV1 ovarian, 2 µM; in the assay on KM12 colon, 2.22 µM; in the assay on DU-145 prostate, 1.71 µM; with SF-268 CNS, 2.58 µM; in the assay with UACC-257 melanoma it was 1.86 µM. Moreover, the total growth inhibition concentration (TGI) in the assay on SK-MEL-5 melanoma came to 3.25 µM; with IGROV1 ovarian, 5.27 µM; in the assay with KM12 colon, 6.66 µM; in the assay with DU-145 prostate, 3.56 µM; in the assay on SF-268 CNS, 9.51 µM; in the assay on UACC-257 melanoma it was 3.41 µM.

Source of the values: PubChem BioAssay (NCI).
